Measurements: ChEMBL document CHEMBL2074191, “Electrophysiological characteristics of the proton-coupled peptide transporter PEPT2 cloned from rat brain” (Am J Physiol, 1998)
Residues, ends and D or L forms follow the SMILES beside them.

Legend:
Type in all cases: functional, cell-based
[1] = target: T1, Solute carrier family 15 member 2 (Rattus norvegicus) (UniProt Q63424); assay: (§1) TP_TRANSPORTER: uptake in PEPT2-expressing HeLa cells
T1 sequence (whole entry): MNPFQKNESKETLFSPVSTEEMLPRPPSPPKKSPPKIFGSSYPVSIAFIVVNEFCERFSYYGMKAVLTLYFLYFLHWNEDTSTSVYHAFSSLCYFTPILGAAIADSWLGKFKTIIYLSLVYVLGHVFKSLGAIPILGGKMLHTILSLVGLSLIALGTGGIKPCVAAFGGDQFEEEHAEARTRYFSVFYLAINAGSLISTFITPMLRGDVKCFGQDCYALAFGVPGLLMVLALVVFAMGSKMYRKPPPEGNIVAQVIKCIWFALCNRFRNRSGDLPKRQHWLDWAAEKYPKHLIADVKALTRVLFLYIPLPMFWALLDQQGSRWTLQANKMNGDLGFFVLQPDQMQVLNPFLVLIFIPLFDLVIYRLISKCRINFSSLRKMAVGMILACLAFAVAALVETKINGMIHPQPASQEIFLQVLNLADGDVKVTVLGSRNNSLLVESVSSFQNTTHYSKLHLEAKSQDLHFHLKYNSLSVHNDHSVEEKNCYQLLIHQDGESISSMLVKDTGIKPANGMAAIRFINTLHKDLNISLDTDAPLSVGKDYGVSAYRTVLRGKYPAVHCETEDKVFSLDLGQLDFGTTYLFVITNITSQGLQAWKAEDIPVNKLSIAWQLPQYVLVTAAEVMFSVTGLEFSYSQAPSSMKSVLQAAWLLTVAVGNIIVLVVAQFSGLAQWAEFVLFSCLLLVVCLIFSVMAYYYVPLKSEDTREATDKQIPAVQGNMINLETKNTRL

[2] = target: T1, Solute carrier family 15 member 2 (Rattus norvegicus); assay: TP_TRANSPORTER: inhibition of Gly-Sar uptake (Gly-Sar: 30 uM, Ala-Lys: 500 uM) in PEPT2-expressing SK-N-SH cells
[3] = target: T2, Solute carrier family 15 member 2 (Rattus norvegicus, UniProt Q63424); assay: TP_TRANSPORTER: inhibition of Gly-Sar uptake (Gly-Sar: 10 uM) in PEPT2-expressing SK-N-SH cells
T2 sequence (Q63424 whole entry): T1 sequence (whole entry)

[4] = target: T1, Solute carrier family 15 member 2 (Rattus norvegicus); assay: TP_TRANSPORTER: inhibition of Gly-Sar uptake (Gly-Sar: 30 uM, Ala-Val: 500 uM) in PEPT2-expressing SK-N-SH cells
[5] = target: T1, Solute carrier family 15 member 2 (Rattus norvegicus); assay: TP_TRANSPORTER: inhibition of Gly-Sar uptake (Gly-Sar: 30 uM, Ala-Glu: 500 uM) in PEPT2-expressing SK-N-SH cells
[6] = substrate: CN(CC(=O)O)C(=O)CN; assay: as §1

Molecule: NCC(=O)N1CCC[C@H]1C(=O)O (H-Gly-Pro-OH)
- Activity [1]: substrate [+]

Molecule: NCC(=O)N[C@@H](Cc1ccccc1)C(=O)O (H-Gly-Phe-OH)
- Activity [1]: substrate [+]

Molecule: C[C@H](N)C(=O)N[C@@H](CCCCN)C(=O)O (H-Ala-Lys-OH)
- Activity [2]: inhibitor [+]

Molecule: CC(=O)N[C@@H](CC(=O)O)C(=O)N[C@@H](CCC(=O)O)C(=O)O [ISOSPAGLUMIC ACID] (Ac-Asp-Glu-OH)
- IC50 [3]: 3 mM

Molecule: CC(C)[C@H](NC(=O)[C@H](C)N)C(=O)O (H-Ala-Val-OH)
- Activity [4]: inhibitor [+]

Molecule: NCC(=O)NCC(=O)O (H-Gly-Gly-OH)
- Activity [1]: substrate [+]

Molecule: C[C@H](N)C(=O)N[C@@H](CCC(=O)O)C(=O)O (H-Ala-Glu-OH)
- Activity [5]: inhibitor [+]

B1: Solute carrier family 15 member 2 (Rattus norvegicus), Q63424 (protein)
chain: T1 sequence (whole entry)
- Km [6]: 35 µM
